This is an account of results in PubChem BioAssay (NCI).

SMILES strings stand for the structures.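 96-well plates; 48 h exposure; 5 concentrations. Endpoints by linear interpolation between flanking doses. Not reached: highest tested concentration assigned. The concentration for full growth arrest is given as TGI.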

Some test systems named below: SF-539 CNS; NCI-H23 lung; TK-10 renal; SK-OV-3 ovarian; SF-268 CNS; MDA-MB-231 breast; CCRF-CEM leukemia; SNB-19 CNS; SF-295 CNS; PC-3 prostate; KM12 colon; IGROV1 ovarian; HCT-116 colon; HCT-15 colon; DU-145 prostate; RXF 393 renal; K-562 leukemia; RPMI-8226 leukemia.
Experiment in all cases: NCI-60 cell line screen, 48 h

For the compound `CCOC(=O)c1c[nH]c2c(Sc3ccccc3)nccc2c1=O`, the TGI in the assay with SF-539 CNS, in the assay on NCI-H23 lung, in the assay with TK-10 renal, with SK-OV-3 ovarian, with SF-268 CNS and in the assay with MDA-MB-231 breast was more than 100 µM in each case. Further, the TGI in the assay on CCRF-CEM leukemia, with SNB-19 CNS, in the assay on SF-295 CNS, with PC-3 prostate, with KM12 colon and in the assay on IGROV1 ovarian was more than 100 µM each time. For the same compound, the TGI in the assay on HCT-116 colon, in the assay with HCT-15 colon and in the assay with DU-145 prostate was more than 100 µM throughout.
As for `O=C(O)CN1C=C(C(=O)c2cc3ccccc3n2S(=O)(=O)c2ccccc2)CCC1`, the TGI with RXF 393 renal, in the assay with SF-539 CNS, in the assay on NCI-H23 lung, in the assay with TK-10 renal, with SF-268 CNS and with MDA-MB-231 breast was more than 100 µM throughout. Moreover, the TGI with CCRF-CEM leukemia, in the assay on SNB-19 CNS, in the assay on SF-295 CNS, with PC-3 prostate, with KM12 colon and with IGROV1 ovarian was more than 100 µM each time. The TGI in the assay with K-562 leukemia, in the assay on HCT-116 colon, in the assay on HCT-15 colon and with DU-145 prostate was more than 100 µM in each case.
As for `Cc1ccn2c(=O)cc(CN3CCOCC3)nc2c1`, the TGI with SF-539 CNS, with NCI-H23 lung, with TK-10 renal, in the assay on SK-OV-3 ovarian, in the assay on RPMI-8226 leukemia and in the assay on SF-268 CNS was more than 100 µM each time. The TGI with MDA-MB-231 breast, with CCRF-CEM leukemia, in the assay on SNB-19 CNS, with SF-295 CNS, with PC-3 prostate and in the assay on KM12 colon was more than 100 µM in each case. Besides, the TGI with IGROV1 ovarian, in the assay with K-562 leukemia, in the assay on HCT-116 colon, in the assay on HCT-15 colon and in the assay with DU-145 prostate was more than 100 µM each time.
As to `COC(=O)C1CCC(=O)N1CN(C(C)=O)c1ccccc1Cl` (stereo not drawn), the TGI in the assay with RXF 393 renal, in the assay on SF-539 CNS, in the assay on NCI-H23 lung, in the assay with TK-10 renal, in the assay on SK-OV-3 ovarian and with RPMI-8226 leukemia was more than 100 µM each time. The TGI in the assay on SF-268 CNS, in the assay with MDA-MB-231 breast, in the assay with SNB-19 CNS, in the assay on SF-295 CNS, in the assay on PC-3 prostate and in the assay on KM12 colon was more than 100 µM each time. The TGI in the assay with IGROV1 ovarian, in the assay on HCT-116 colon, in the assay on HCT-15 colon and in the assay with DU-145 prostate was more than 100 µM in each case.
For the compound `S=c1[nH]nc(CNc2ccc(-c3n[nH]c(=S)n3-c3ccc(Cl)cc3)cc2)n1-c1ccc(Cl)cc1`, the TGI with RXF 393 renal is more than 100 µM; with NCI-H23 lung it was more than 100 µM; with TK-10 renal, more than 100 µM; in the assay on SK-OV-3 ovarian, more than 100 µM; in the assay on RPMI-8226 leukemia, 78 µM; with SF-268 CNS it was more than 100 µM. The TGI in the assay on MDA-MB-231 breast was more than 100 µM; in the assay with SNB-19 CNS it was more than 100 µM; in the assay with SF-295 CNS it was 81.2 µM; in the assay on PC-3 prostate, more than 100 µM; in the assay on KM12 colon it was 44 µM; in the assay with IGROV1 ovarian it was 47.1 µM. The TGI in the assay with K-562 leukemia is more than 100 µM; in the assay with HCT-116 colon, 32.8 µM; in the assay with HCT-15 colon, more than 100 µM; in the assay on DU-145 prostate, 71.1 µM.
Take `Nc1ccc2c(O)cc(=O)[nH]c2n1`: the TGI with RXF 393 renal, in the assay with SF-539 CNS, with NCI-H23 lung, in the assay with TK-10 renal, with SK-OV-3 ovarian and in the assay with RPMI-8226 leukemia was more than 100 µM throughout. The TGI in the assay on SF-268 CNS, in the assay on MDA-MB-231 breast, in the assay with SNB-19 CNS, with SF-295 CNS, in the assay with PC-3 prostate and with KM12 colon was more than 100 µM in each case. In addition, the TGI in the assay with IGROV1 ovarian, in the assay with K-562 leukemia, with HCT-116 colon, with HCT-15 colon and with DU-145 prostate was more than 100 µM in each case.
Consider `COc1cc(NS(C)(=O)=O)ccc1Nc1cc[nH]c2ccc3nccc3c12`, for which the TGI is 29.8 µM in the assay on NCI-H23 lung; 30.3 µM with TK-10 renal; 31.7 µM in the assay with RPMI-8226 leukemia; 25 µM with SF-268 CNS; 25 µM in the assay on MDA-MB-231 breast; 40.9 µM in the assay on CCRF-CEM leukemia. Moreover, the TGI came out at 29.9 µM with SNB-19 CNS; 32.9 µM in the assay on SF-295 CNS; 26 µM in the assay on PC-3 prostate; 28.2 µM with KM12 colon; 31.2 µM in the assay on IGROV1 ovarian; 25.7 µM in the assay with K-562 leukemia. Further, the TGI with HCT-116 colon is 24.7 µM; in the assay with HCT-15 colon, more than 100 µM; in the assay on DU-145 prostate, 27.7 µM.
For the compound `Cc1ccc(S(=O)(=O)NC(=O)NCCc2cnc[nH]2)cc1`, the TGI with RXF 393 renal, with SF-539 CNS, in the assay with NCI-H23 lung, in the assay with TK-10 renal, in the assay on SK-OV-3 ovarian and in the assay on RPMI-8226 leukemia was more than 100 µM throughout. Also, the TGI in the assay on SF-268 CNS, with MDA-MB-231 breast, with SNB-19 CNS, in the assay with SF-295 CNS, in the assay on PC-3 prostate and with KM12 colon was more than 100 µM throughout. Besides, the TGI in the assay with IGROV1 ovarian, in the assay on K-562 leukemia, in the assay on HCT-116 colon, in the assay on HCT-15 colon and in the assay with DU-145 prostate was more than 100 µM each time.
Turning to `CC(=O)O[C@H]1C(=O)[C@@]2(C)[C@H]([C@H](OC(=O)c3cccc([N+](=O)[O-])c3)[C@]3(O)C[C@H](OC(=O)[C@H](O)[C@@H](NC(=O)c4ccccc4)c4ccccc4)C(C)=C1C3(C)C)[C@]1(OC(C)=O)CO[C@@H]1C[C@@H]2O`, the TGI was 0.00254 µM in the assay with SF-539 CNS; more than 21.8 µM in the assay with TK-10 renal; more than 25 µM with SK-OV-3 ovarian; 18.1 µM with RPMI-8226 leukemia; more than 25 µM in the assay with SF-268 CNS; more than 25 µM with MDA-MB-231 breast. Moreover, the TGI in the assay on SNB-19 CNS is more than 25 µM; in the assay with SF-295 CNS, 0.15 µM; in the assay with PC-3 prostate, more than 25 µM; in the assay with KM12 colon, more than 25 µM; with IGROV1 ovarian, more than 25 µM; in the assay on HCT-116 colon it was more than 25 µM. In addition, the TGI in the assay on HCT-15 colon and with DU-145 prostate was more than 25 µM each time.
